Assay results: ChEMBL document CHEMBL5365534, “Discovery of a Novel Ketohexokinase Inhibitor with Improved Drug Distribution in Target Tissue for the Treatment of Fructose Metabolic Disease” (J Med Chem, 2023)
The source made the active and inactive calls. No cut-off for these calls is given here.

What was measured:
[1] = AUC (0 to infinity) in Beagle dog at 5 mg/kg, po administered as single dose measured upto 24 hrs by LC-MS/MS analysis; format: ADME, organism-based, Canis lupus familiaris; set-up: time < 24 hrs, dose 5 mg/kg, route po; details: in vivo
in vivo [2] = details: Sprague-Dawley, rat, liver/plasma, po, 10 mg/kg
Description: Ratio of drug concentration in Sprague-Dawley rat liver to plasma at 10 mg/kg, po administered as single dose measured upto 24 hrs by LC-MS/MS analysis

in vitro [3] = details: rhesus monkey, hepatocytes
in vitro [4] = details: mouse, hepatocytes
[5] = Volume of distribution at steady state in Sprague-Dawley rat at 10 mg/kg, iv administered as single dose measured upto 24 hrs by LC-MS/MS analysis; format: ADME, organism-based; details: in vivo, read-out: Vdss
Ketohexokinase = target: T1, Ketohexokinase (Homo sapiens, UniProt P50053)
T1 sequence (P50053 whole entry): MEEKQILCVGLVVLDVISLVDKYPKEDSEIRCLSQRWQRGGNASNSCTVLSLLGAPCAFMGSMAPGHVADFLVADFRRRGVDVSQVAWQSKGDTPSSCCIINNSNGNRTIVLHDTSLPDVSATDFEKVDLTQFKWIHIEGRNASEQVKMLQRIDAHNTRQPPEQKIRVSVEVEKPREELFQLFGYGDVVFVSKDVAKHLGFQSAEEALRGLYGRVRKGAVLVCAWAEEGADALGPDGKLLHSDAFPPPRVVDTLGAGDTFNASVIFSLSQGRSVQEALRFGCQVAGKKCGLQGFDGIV
Description: Inhibition of N-terminal his tagged human recombinant KHK-C expressed in Escherichia coli incubated for 60 mins in presence of ATP by ADP Glo assay

[6] = Drug metabolism in mouse hepatocytes assessed as glucuronidation metabolite at 10 uM measured upto 240 mins by LC-MS/MS analysis; format: ADME, cell-based, Hepatocyte; details: 4 h
in vitro [7] = details: rat, hepatocytes
in vivo [8] = details: Sprague-Dawley, rat, lung, po, 10 mg/kg
Description: Drug concentration in Sprague-Dawley rat lung at 10 mg/kg, po administered as single dose measured upto 24 hrs by LC-MS/MS analysis

[9] = Clearance in Beagle dog at 1 mg/kg, iv administered as single dose measured upto 24 hrs by LC-MS/MS analysis; format: ADME, organism-based, Canis lupus familiaris; details: in vivo
Cytochrome P450 2C19 = Cytochrome P450 2C19 (Homo sapiens, UniProt P33261); assay: Time dependent inhibition of CYP2C19 in human liver microsomes at 10 uM preincubated for 30 mins followed by substrate addition and measured after 15 mins in presence of NADPH by LC-MS/MS analysis; format: ADME, Microsome
[10] = Metabolic stability in mouse hepatocyte assessed as parent compound remaining at 10 uM measured after 4 hrs by LC-MS/MS analysis; format: ADME, cell-based; details: hepatocytes, read-out: Stability
[11] = AUC (0 to t) in Beagle dog at 1 mg/kg, iv administered as single dose measured upto 24 hrs by LC-MS/MS analysis; format: ADME, organism-based, Canis lupus familiaris; set-up: dose 1 mg/kg, time < 24 hrs, route iv; details: in vivo
[12] = target: Sodium channel protein type 5 subunit alpha (Homo sapiens, UniProt Q14524)
Description: Inhibition of human Nav1.5 by manual-patch clamp assay

[13] = AUC (0 to infinity) in Beagle dog at 1 mg/kg, iv administered as single dose measured upto 24 hrs by LC-MS/MS analysis; format: ADME, organism-based, Canis lupus familiaris; set-up: time < 24 hrs, dose 1 mg/kg, route iv; details: in vivo
[14] = Cmax in Sprague-Dawley rat at 10 mg/kg, po administered as single dose measured upto 24 hrs by LC-MS/MS analysis; format: ADME, organism-based; set-up: time < 24 hrs, dose 10 mg/kg, route po; details: in vivo
[15] = Metabolic stability in dog hepatocyte assessed as parent compound remaining at 10 uM measured after 4 hrs by LC-MS/MS analysis; format: ADME, cell-based, Canis lupus familiaris; details: hepatocytes, read-out: Stability
[16] = Oral bioavailability in Beagle dog at 5 mg/kg administered as single dose measured upto 24 hrs by LC-MS/MS analysis; format: ADME, organism-based, Canis lupus familiaris; details: in vivo
[17] = Elimination half life in Beagle dog at 1 mg/kg, iv administered as single dose measured upto 24 hrs by LC-MS/MS analysis; format: ADME, organism-based, Canis lupus familiaris; details: in vivo, read-out: beta t1/2 (converted)
[18] = Elimination half life in Beagle dog at 5 mg/kg, po administered as single dose measured upto 24 hrs by LC-MS/MS analysis; format: ADME, organism-based, Canis lupus familiaris; details: in vivo, read-out: beta t1/2 (converted)
[19] = Drug metabolism in mouse hepatocytes assessed as oxidation/hydrogenation/decarboxylation metabolite at 10 uM measured upto 240 mins by LC-MS/MS analysis; format: ADME, cell-based, Hepatocyte; details: 4 h
[20] = Drug metabolism in rat hepatocytes assessed as glycine conjugation metabolite at 10 uM measured upto 240 mins by LC-MS/MS analysis; format: ADME, cell-based, Hepatocyte; details: 4 h
in vitro [21] = details: rhesus monkey, liver microsomes
[22] = Elimination half life in Sprague-Dawley rat at 10 mg/kg, po administered as single dose measured upto 24 hrs by LC-MS/MS analysis; format: ADME, organism-based; details: in vivo, read-out: beta t1/2 (converted)
Cytochrome P450 2D6 = Cytochrome P450 2D6 (Homo sapiens, UniProt P10635)
Description: Inhibition of CYP2D6 in human liver microsomes at 0.1 to 30 uM measured for 5 mins in presence of NADPH by LC-MS/MS analysis

Cytochrome P450 3A4 [23] = target: T2, Cytochrome P450 3A4 (Homo sapiens, UniProt P08684); assay: Time dependent inhibition of CYP3A4 in human liver microsomes at 10 uM preincubated for 30 mins followed by substrate addition and measured after 15 mins in presence of NADPH by LC-MS/MS analysis; format: ADME, Microsome
in vitro [24] = details: human, primary hepatocytes
Description: Toxicity in human Primary hepatocyte incubated for 48 hrs by Celltiter-Glo assay

in vitro [25] = details: rat, liver microsomes
in vivo [26] = details: Sprague-Dawley, rat, plasma, po, 10 mg/kg
Description: Drug concentration in Sprague-Dawley rat plasma at 10 mg/kg, po administered as single dose measured upto 24 hrs by LC-MS/MS analysis

Rattus norvegicus = assay: In vivo inhibition of KHK in 16 hr fasted Sprague-Dawley rat assessed as inhibition of metabolic clearance of fructose at 50 to 150 mg/kg, po pretreated for 1 hr followed fructose induction and measured after 0.5 to 3 hrs by ELISA method; format: functional, organism-based; details: dose lower 50.0 mg/kg, dose upper […], time upper 4.0 hrs
Cytochrome P450 3A4 [27] = target: T2, Cytochrome P450 3A4
Description: Inhibition of CYP3A4 in human liver microsomes at 0.1 to 30 uM measured for 5 mins in presence of NADPH by LC-MS/MS analysis

[28] = Tmax in Sprague-Dawley rat at 10 mg/kg, po administered as single dose measured upto 24 hrs by LC-MS/MS analysis; format: ADME, organism-based; details: in vivo
in vivo [29] = details: Sprague-Dawley, rat, heart, po, 10 mg/kg
Description: Drug concentration in Sprague-Dawley rat heart at 10 mg/kg, po administered as single dose measured upto 24 hrs by LC-MS/MS analysis

[30] = Drug metabolism in dog hepatocytes assessed as glucuronidation metabolite at 10 uM measured upto 240 mins by LC-MS/MS analysis; format: ADME, cell-based, Canis lupus familiaris, Hepatocyte; details: 4 h
in vivo [31] = details: Sprague-Dawley, rat, kidney, po, 10 mg/kg
Description: Drug concentration in Sprague-Dawley rat kidney at 10 mg/kg, po administered as single dose measured upto 24 hrs by LC-MS/MS analysis

[32] = AUC (0 to t) in Sprague-Dawley rat at 10 mg/kg, po administered as single dose measured upto 24 hrs by LC-MS/MS analysis; format: ADME, organism-based; set-up: time < 24 hrs, dose 10 mg/kg, route po; details: in vivo
HepG2 = assay: cells; details: Homo sapiens, HepG2, 48 h
Description: Cytotoxicity against human HepG2 cells measured after 48 hrs by microscopy based analysis

Cytochrome P450 2C9 = Cytochrome P450 2C9 (Homo sapiens, UniProt P11712)
Description: Inhibition of CYP2C9 in human liver microsomes at 0.1 to 30 uM measured for 5 mins in presence of NADPH by LC-MS/MS analysis

[33] = target: Voltage-gated inwardly rectifying potassium channel KCNH2 (Homo sapiens, UniProt Q12809)
Chain of Voltage-gated inwardly rectifying potassium channel KCNH2 (Q12809 whole entry): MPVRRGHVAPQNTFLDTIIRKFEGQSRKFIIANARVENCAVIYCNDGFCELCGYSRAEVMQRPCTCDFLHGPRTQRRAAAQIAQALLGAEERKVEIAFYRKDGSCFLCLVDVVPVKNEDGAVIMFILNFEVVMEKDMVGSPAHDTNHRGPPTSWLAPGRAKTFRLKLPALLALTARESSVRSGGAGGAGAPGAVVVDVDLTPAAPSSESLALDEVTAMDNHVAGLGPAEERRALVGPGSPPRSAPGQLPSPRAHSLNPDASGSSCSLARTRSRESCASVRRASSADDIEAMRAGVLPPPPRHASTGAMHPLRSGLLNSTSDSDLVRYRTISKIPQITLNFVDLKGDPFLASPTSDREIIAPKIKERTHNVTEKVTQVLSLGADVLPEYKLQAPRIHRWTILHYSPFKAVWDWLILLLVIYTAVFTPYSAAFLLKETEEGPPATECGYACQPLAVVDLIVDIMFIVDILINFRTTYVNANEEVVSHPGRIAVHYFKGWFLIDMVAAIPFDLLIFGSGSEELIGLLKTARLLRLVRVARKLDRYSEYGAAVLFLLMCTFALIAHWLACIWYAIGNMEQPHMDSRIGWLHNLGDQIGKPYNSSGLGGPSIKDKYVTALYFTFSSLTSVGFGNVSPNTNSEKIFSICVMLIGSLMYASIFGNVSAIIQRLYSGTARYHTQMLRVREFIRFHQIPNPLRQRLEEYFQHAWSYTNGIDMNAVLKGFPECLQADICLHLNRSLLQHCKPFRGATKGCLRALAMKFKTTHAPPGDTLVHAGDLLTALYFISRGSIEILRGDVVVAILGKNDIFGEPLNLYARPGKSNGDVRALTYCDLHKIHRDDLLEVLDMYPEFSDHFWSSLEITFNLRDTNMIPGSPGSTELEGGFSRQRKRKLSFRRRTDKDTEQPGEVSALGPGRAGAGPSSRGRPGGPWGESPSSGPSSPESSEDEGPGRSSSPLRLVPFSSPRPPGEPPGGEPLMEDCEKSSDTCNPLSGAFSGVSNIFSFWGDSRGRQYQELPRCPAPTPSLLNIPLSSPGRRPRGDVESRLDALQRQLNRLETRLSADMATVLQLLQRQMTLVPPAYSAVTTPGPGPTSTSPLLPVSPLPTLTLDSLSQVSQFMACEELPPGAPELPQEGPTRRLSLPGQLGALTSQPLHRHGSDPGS
Description: Inhibition of human ERG expressed in HEK293 cells by manual-patch clamp assay

T2 sequence (P08684 whole entry): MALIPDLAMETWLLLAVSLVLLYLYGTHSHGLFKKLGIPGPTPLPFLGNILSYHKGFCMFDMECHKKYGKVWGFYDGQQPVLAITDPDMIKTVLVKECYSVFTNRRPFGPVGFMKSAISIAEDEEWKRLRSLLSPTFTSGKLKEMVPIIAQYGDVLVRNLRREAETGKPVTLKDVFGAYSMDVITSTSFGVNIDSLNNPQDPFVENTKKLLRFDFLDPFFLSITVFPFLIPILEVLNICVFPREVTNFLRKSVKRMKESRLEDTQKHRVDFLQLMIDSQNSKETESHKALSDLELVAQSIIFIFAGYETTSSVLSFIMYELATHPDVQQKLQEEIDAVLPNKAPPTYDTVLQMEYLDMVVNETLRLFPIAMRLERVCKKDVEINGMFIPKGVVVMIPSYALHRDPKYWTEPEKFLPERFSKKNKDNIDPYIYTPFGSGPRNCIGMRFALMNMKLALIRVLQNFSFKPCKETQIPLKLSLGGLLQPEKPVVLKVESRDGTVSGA
Chain of Cytochrome P450 2D6 (P10635 whole entry): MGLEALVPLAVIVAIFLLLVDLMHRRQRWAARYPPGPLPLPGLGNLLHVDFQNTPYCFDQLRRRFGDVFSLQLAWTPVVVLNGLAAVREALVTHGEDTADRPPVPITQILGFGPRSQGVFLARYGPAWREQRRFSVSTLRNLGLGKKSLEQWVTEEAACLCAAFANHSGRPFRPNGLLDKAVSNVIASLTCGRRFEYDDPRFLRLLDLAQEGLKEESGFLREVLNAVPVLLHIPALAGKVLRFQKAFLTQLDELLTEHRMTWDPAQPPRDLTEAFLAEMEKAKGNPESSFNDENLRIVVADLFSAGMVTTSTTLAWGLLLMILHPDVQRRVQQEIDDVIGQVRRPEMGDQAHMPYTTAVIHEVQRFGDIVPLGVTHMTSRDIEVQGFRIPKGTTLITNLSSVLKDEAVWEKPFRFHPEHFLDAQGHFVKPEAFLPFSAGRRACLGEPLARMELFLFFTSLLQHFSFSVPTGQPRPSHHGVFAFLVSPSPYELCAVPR
Chain of Sodium channel protein type 5 subunit alpha (Q14524 whole entry): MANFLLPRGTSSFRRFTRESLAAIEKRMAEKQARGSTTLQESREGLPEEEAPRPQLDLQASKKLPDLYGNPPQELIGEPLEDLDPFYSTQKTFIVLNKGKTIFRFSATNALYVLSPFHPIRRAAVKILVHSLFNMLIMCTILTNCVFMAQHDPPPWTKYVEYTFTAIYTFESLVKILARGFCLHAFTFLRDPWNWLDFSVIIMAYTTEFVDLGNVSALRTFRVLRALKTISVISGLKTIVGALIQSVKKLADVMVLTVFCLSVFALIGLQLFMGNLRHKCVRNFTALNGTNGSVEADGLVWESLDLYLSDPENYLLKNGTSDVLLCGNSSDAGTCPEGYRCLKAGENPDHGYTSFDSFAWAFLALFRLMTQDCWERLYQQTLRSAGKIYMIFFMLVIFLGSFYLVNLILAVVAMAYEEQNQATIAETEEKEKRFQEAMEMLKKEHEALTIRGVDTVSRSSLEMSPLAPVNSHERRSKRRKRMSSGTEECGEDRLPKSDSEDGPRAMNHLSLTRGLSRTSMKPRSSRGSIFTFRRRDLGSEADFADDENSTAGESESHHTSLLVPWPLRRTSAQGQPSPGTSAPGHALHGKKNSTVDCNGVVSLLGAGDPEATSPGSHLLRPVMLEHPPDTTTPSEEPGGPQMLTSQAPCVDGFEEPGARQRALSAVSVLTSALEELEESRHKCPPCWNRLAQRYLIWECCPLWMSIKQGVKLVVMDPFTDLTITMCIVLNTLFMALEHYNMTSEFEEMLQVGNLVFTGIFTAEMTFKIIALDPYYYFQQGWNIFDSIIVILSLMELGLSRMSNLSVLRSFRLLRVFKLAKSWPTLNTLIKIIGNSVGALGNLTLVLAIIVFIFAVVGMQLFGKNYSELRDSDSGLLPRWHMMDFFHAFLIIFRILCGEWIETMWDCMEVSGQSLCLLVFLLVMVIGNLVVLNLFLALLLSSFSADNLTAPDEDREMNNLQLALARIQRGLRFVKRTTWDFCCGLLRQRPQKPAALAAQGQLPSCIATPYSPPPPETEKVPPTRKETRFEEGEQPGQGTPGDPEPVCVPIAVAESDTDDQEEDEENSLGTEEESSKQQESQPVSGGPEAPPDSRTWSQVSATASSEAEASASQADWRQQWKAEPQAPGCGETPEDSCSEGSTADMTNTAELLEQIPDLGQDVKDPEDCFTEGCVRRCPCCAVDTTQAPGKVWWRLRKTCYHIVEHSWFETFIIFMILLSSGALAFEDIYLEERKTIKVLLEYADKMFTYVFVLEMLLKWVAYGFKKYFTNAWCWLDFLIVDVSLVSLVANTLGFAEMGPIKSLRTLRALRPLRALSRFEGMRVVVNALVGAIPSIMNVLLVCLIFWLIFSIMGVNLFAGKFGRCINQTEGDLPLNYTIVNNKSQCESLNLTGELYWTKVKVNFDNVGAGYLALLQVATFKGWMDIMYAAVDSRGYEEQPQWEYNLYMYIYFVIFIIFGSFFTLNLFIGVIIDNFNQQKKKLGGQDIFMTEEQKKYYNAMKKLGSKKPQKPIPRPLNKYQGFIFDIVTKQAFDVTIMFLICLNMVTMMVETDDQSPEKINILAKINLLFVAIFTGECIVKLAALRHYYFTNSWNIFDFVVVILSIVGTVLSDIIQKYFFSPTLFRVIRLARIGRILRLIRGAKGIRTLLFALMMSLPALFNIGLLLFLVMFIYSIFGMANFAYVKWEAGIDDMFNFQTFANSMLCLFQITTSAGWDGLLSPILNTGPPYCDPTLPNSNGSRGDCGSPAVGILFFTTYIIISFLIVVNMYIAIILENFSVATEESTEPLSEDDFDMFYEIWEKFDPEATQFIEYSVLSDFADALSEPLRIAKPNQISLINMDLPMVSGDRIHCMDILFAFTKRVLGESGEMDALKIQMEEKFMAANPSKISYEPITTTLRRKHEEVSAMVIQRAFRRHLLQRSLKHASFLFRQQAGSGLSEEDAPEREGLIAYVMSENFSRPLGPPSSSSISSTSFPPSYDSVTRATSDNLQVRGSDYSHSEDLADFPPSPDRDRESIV
Chain of Cytochrome P450 2C19 (P33261 whole entry): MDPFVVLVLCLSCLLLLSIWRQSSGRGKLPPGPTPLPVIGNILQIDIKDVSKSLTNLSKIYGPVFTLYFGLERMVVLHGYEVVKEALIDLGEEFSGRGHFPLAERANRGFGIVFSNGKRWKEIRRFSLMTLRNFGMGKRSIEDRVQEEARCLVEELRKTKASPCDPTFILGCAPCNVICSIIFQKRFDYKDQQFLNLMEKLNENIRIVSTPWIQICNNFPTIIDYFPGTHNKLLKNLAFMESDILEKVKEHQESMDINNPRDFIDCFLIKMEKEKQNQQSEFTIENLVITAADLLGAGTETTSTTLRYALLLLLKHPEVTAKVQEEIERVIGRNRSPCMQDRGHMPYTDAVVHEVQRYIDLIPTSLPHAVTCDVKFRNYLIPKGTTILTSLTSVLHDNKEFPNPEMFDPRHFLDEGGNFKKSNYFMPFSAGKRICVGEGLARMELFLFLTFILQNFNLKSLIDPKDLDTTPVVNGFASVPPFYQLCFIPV

Q: What does the source list for `C[C@H]1CCN1c1nc(N2CC[C@H](CCC(=O)O)C2)c2c(n1)C(F)(F)CC2`?
A: AUC [1]: 34100 ng·h/mL; Kp at 24 h (in vivo [2]): 9.9; hepatocyte CLint at 2 h, 1 µM (in vitro [3]): < 0.96 µL/min/1e6 cells; hepatocyte CLint at 2 h, 1 µM (in vitro [4]): < 0.96 µL/min/1e6 cells; Vd [5]: 0.89 L/kg; IC50 (Ketohexokinase): 0.0351 µM; Drug metabolism [6]: Metabolite_Notdetected; hepatocyte CLint at 2 h, 1 µM (in vitro [7]): < 0.96 µL/min/1e6 cells; concentration at 24 h (in vivo [8]): 620 ng/g; clearance [9]: 3.06 mL/min/kg; IC50 (Cytochrome P450 2C19): > 10 µM; remaining at 4 h, 10 µM [10]: 96.6%; AUCt [11]: 5440 ng·h/mL; IC50 [12]: > 30 µM; AUC [13]: 5580 ng·h/mL; Cmax [14]: 4900 ng/mL; remaining at 4 h, 10 µM [15]: 97.8%; bioavailability [16]: 122%; half-life [17]: 5.1 h; half-life [18]: 5.21 h; Drug metabolism [19]: Metabolite_Notdetected; Drug metabolism [20]: Metabolite_Notdetected; microsomal CLint at 2 h, 1 µM (in vitro [21]): 10.2 µL/min/mg; half-life [22]: 7.16 h; IC50 (Cytochrome P450 2D6): > 30 µM; IC50 (Cytochrome P450 3A4 [23]): > 10 µM; IC50 at 48 h (in vitro [24]): > 150 µM; microsomal CLint at 2 h, 1 µM (in vitro [25]): < 6.4 µL/min/mg; concentration at 24 h (in vivo [26]): 5080 ng/mL; inhibition (Rattus norvegicus): Active; IC50 (Cytochrome P450 3A4 [27]): > 30 µM; Tmax [28]: 2.33 h; concentration at 24 h (in vivo [29]): 1490 ng/g; Drug metabolism [30]: Metabolite_Notdetected; concentration at 24 h (in vivo [31]): 11000 ng/g; AUCt [32]: 39900 ng·h/mL; IC50 (HepG2): > 150 µM; IC50 (Cytochrome P450 2C9): > 30 µM; IC50 [33]: > 30 µM
